The source made the active and inactive calls.
Columns and labels:
[1] = biological target: T1, Voltage-gated N-type calcium channel alpha-1B subunit/Amyloid beta A4 precursor protein-binding family A member 1 (Homo sapiens, UniProt Q00975+Q02410); assay type: protein assay
[2] = biological target: T1, Voltage-gated N-type calcium channel alpha-1B subunit/Amyloid beta A4 precursor protein-binding family A member 1; assay type: protein assay; remark: listed apart in the source
[3] = biological target: G-protein coupled receptor 55 (Homo sapiens, UniProt Q9Y2T6); test: inhibition of LPI-stimulated GPR55 beta-arrestin translocation – imaging, U2OS, beta-arrestin-GFP, LPI agonist, primary screen (AID 2013); assay type: functional;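 further: antagonist potency measured as reduced agonist-driven arrestin aggregation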
Cryptococcus neoformans = test: PubChem AID 686997; assay type: functional, organism-based
BJ [4] = test: BJ-TERT fibroblast viability loss – cell-based, RAS-independent, luminescence, dose response (AID 1933); assay type: functional; settings: Homo sapiens
BJ [5] = test: cells; assay type: functional, cell-based; settings: Homo sapiens
BJ [6] = test: BJ-TERT-LT-ST fibroblast viability loss – cell-based, RAS-independent, luminescence, dose response (AID 1935); assay type: functional; settings: Homo sapiens;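 further: BJ fibroblasts immortalized with TERT plus LT and ST oncogenes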
[7] = DRD fibroblast viability loss – cell-based, non-viral oncogenic, luminescence, dose response (AID 1934); assay type: functional; settings: Homo sapiens
[8] = biological target: Glutathione S-transferase omega-1 (Homo sapiens, UniProt P78417); test: IC50 of human GSTO1 inhibition by gel ABPP – biochemical, SE-Rh probe, in-gel fluorescence, powder samples, late-stage follow-up (AID 463081); assay type: functional
[9] = Intein inhibitors as potential Tuberculosis drugs, a cytotoxicity screen. [Related pubchem assays (depositor defined):AID2221, AID2223, AID434968, AID435010, AID449749, AID449750, AID489010]; assay type: functional
[10] = biological target: T2, Microphthalmia-associated transcription factor (Homo sapiens, UniProt O75030); test: reducers of TRPM1 reporter luminescence, concentration series – cell-based, SK-MEL-5, cherry-picked, set 3, MITF inhibitor project, dose response (AID 493073); assay type: functional;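 further: SK-MEL-5 melanoma cells with luciferase driven by the MITF target TRPM1 promoter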
T2 sequence (O75030 whole entry): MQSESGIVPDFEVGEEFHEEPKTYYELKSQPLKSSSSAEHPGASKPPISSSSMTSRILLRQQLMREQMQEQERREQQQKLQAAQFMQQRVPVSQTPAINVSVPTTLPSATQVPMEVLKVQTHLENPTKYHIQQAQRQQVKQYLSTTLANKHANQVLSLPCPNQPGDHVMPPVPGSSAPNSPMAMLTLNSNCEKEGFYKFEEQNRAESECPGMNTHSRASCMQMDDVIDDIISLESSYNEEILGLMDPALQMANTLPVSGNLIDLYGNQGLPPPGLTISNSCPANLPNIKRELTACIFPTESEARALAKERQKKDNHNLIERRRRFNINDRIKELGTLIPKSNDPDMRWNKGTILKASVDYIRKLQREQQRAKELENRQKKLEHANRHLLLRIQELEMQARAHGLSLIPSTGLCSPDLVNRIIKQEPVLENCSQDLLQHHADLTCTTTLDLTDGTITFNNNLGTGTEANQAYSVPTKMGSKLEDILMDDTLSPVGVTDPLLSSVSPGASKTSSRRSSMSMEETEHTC

[11] = biological target: T3, Replicative DNA helicase DnaB (Mycobacterium tuberculosis, UniProt P9WMR3); test: DnaB intein splicing inhibitors, dose response, biochemical, cell-free fluorescence (AID 449749); assay type: functional
T3 sequence (P9WMR3 whole entry): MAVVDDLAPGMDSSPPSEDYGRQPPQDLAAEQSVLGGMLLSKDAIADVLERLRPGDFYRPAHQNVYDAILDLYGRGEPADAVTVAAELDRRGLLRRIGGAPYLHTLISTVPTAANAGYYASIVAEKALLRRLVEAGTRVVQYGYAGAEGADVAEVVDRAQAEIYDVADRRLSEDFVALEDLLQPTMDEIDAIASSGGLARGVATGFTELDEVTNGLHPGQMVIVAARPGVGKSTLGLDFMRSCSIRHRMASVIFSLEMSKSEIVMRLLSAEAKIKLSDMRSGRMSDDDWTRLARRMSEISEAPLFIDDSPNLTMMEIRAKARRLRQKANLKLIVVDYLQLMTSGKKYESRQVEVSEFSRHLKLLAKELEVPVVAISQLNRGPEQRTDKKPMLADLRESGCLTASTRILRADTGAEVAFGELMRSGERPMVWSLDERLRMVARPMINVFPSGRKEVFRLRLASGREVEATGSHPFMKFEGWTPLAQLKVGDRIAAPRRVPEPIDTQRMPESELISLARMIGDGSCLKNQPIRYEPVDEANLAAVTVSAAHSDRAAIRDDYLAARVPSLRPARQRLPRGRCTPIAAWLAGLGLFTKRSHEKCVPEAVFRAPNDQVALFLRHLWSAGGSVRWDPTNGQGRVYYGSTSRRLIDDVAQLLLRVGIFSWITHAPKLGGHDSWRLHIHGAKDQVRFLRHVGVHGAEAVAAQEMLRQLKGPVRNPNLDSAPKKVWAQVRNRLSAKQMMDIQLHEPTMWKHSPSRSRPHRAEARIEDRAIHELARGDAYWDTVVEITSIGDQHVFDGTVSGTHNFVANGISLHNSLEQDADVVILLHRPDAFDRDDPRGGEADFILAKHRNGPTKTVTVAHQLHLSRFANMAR

Protein RecA = biological target: T4, Protein RecA (Mycobacterium tuberculosis, UniProt P9WHJ3); test: Fluorescence Cell-Free Homogeneous Dose Retest to Identify Inhibitors of RecA-Intein Splicing Activity. [Related pubchem assays (depositor defined):AID2097, AID2223, AID489010, AID492950]; assay type: functional
T4 sequence (P9WHJ3 whole entry): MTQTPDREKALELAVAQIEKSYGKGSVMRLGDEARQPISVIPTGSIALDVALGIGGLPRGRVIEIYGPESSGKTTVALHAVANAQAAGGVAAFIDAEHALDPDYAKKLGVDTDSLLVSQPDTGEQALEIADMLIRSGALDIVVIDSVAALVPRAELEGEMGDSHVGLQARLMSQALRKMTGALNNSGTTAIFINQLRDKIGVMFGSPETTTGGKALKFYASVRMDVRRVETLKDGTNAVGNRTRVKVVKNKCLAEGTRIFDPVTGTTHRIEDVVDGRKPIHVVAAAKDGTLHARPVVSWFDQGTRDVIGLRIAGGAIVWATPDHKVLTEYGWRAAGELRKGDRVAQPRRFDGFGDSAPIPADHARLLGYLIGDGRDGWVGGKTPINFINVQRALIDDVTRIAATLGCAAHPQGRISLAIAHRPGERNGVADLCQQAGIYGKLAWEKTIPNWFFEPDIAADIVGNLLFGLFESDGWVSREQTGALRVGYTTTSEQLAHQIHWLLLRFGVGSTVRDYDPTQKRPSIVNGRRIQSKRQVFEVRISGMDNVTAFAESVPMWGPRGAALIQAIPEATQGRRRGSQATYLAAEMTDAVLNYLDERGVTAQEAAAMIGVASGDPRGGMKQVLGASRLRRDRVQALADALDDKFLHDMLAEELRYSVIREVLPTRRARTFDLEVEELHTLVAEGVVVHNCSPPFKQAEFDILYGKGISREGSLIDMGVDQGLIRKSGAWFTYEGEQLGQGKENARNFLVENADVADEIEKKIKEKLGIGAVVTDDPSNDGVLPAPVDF

Mu-type opioid receptor = Mu-type opioid receptor (Homo sapiens, UniProt P35372); test: SAR Analysis of Antagonists of the MOR Receptor using an Image-Based Assay - Set 3. [Related pubchem assays (depositor defined):AID1777, AID1785, AID1786, AID1966, AID2133, AID2136, AID2284, AID2285, AID2420]; assay type: functional
[12] = biological target: Delta-type opioid receptor (Homo sapiens, UniProt P41143); test: SAR Analysis of Antagonists of the DOR Receptor using an Image-Based Assay - Set 3. [Related pubchem assays (depositor defined):AID1777, AID1785]; assay type: functional;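 further: U2OS cells expressing DOR1 and beta-arrestin GFP stimulated with 100 nM SNC80; imaging of GFP-tagged beta-arrestin moving into spots after receptor activation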
[13] = biological target: T5, Kappa-type opioid receptor (Homo sapiens, UniProt P41145); test: SAR analysis of small molecule antagonists of the kappa opioid receptor via a luminescent beta-arrestin assay - Set 3. [Related pubchem assays (depositor defined):AID1777, AID1778, AID1785, AID1786, AID1966, AID2133, AID2136, AID2285, AID2495]; assay type: functional
[14] = biological target: T5, Kappa-type opioid receptor; test: SAR analysis of Antagonists of the Kappa Opioid Receptor (KOR) using an Image-Based Assay - Set 3. [Related pubchem assays (depositor defined):AID1777, AID1785]; assay type: functional
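Wherever CC50 is given: cells exposed to compound for 72 hours before luminescence readout.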

T5 sequence (P41145 whole entry): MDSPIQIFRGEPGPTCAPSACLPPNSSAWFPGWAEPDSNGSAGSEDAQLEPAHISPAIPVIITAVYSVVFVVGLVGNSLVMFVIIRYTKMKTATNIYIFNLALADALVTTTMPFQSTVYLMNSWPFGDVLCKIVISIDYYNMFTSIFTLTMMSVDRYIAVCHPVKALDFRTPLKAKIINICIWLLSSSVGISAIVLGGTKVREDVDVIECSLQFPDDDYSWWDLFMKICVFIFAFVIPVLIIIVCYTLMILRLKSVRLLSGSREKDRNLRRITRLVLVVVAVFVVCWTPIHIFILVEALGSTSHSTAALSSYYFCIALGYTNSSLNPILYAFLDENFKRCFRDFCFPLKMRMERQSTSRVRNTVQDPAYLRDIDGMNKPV
T1 sequence (Q00975 whole entry): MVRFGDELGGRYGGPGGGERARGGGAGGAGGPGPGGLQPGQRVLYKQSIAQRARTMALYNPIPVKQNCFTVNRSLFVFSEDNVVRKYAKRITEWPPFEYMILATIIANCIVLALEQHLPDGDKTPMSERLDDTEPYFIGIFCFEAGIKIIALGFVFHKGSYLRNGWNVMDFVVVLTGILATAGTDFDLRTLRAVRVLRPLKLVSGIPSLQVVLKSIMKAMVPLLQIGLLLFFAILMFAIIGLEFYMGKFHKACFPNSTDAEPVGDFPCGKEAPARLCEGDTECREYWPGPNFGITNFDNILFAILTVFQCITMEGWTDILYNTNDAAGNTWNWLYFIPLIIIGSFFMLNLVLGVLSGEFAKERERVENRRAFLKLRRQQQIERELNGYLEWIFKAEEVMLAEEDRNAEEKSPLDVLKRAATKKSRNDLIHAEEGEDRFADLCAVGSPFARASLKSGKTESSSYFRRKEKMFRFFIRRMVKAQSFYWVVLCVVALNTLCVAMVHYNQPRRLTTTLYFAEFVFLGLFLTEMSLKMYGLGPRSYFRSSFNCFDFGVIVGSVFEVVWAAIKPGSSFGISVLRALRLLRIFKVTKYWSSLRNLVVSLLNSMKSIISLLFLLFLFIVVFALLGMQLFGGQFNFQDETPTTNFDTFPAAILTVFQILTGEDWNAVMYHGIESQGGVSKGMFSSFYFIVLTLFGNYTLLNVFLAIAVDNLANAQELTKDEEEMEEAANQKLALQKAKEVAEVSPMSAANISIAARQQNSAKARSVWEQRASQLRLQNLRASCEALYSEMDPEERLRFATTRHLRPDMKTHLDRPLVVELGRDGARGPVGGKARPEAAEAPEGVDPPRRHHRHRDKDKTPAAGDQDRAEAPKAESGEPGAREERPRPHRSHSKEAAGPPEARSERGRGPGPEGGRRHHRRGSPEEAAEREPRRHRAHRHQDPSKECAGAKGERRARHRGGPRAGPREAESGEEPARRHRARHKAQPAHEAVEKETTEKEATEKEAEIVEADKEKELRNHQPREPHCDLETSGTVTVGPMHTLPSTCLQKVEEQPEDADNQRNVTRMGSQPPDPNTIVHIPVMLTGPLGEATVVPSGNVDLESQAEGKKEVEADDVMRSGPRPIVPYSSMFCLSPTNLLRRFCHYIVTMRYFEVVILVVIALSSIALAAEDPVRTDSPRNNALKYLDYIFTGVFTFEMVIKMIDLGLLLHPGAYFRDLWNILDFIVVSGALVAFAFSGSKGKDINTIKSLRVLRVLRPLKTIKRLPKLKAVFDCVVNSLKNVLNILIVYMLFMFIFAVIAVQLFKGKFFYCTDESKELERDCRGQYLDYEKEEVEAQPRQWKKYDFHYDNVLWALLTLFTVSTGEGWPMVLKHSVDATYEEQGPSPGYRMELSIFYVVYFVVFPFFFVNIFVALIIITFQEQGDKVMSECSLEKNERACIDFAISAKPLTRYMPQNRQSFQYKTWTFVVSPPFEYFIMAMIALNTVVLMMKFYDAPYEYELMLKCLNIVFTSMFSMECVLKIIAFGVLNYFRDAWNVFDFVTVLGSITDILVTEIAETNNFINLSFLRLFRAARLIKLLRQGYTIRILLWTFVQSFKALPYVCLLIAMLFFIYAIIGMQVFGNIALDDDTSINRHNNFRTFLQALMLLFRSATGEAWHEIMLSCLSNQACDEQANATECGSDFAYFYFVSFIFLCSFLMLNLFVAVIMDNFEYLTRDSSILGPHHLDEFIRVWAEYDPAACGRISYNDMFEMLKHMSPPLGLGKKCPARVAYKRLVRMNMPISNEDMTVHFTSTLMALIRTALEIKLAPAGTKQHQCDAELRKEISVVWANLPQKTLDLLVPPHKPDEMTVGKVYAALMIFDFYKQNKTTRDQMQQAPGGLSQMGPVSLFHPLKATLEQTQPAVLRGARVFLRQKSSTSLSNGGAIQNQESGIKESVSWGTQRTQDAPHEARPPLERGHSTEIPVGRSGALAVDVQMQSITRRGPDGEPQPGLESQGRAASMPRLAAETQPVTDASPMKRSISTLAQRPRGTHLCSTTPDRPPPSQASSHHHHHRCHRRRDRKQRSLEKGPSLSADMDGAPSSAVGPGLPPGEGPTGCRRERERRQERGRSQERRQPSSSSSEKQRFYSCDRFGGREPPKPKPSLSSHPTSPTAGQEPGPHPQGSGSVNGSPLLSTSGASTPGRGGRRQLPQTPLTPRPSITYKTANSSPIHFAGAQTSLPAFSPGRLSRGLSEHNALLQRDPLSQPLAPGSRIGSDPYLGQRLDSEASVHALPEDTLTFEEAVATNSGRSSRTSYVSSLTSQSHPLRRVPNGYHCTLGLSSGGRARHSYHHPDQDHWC
T1 sequence (Q02410 whole entry): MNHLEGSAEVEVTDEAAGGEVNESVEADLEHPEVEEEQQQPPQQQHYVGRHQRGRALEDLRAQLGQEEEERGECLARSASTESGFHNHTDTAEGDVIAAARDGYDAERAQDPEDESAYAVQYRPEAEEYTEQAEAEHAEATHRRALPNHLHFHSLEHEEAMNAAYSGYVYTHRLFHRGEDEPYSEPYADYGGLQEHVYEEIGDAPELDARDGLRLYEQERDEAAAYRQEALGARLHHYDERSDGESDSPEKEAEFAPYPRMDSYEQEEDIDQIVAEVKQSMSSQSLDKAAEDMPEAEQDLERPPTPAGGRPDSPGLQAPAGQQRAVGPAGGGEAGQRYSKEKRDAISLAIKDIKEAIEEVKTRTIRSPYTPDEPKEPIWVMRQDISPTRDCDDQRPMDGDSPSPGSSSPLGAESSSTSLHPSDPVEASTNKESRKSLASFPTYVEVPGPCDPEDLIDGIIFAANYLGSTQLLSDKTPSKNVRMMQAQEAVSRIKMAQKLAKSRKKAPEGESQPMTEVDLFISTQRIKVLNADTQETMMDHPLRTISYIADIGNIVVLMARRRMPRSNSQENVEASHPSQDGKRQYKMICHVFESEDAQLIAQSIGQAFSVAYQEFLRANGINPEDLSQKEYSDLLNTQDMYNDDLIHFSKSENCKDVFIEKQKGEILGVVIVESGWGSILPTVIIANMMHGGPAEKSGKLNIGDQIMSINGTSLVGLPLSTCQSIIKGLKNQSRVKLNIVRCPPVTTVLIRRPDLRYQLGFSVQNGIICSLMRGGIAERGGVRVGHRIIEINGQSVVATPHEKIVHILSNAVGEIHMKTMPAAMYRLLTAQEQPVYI
Sequence of Glutathione S-transferase omega-1 (P78417 whole entry): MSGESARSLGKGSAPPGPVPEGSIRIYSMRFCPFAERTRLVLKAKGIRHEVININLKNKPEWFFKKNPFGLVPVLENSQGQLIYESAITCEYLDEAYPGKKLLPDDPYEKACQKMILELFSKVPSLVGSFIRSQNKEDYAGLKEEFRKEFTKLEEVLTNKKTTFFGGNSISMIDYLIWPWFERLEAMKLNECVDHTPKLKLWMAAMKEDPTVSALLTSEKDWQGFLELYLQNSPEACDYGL
Sequence of G-protein coupled receptor 55 (Q9Y2T6 whole entry): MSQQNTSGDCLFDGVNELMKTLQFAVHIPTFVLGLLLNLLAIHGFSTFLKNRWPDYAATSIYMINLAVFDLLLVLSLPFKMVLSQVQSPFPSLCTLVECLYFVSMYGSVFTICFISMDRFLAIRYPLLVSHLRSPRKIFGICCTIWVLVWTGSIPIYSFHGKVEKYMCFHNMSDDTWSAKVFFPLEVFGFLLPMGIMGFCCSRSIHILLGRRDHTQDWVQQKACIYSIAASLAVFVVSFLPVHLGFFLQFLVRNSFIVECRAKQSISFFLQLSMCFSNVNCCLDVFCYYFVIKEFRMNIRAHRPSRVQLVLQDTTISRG
Sequence of Delta-type opioid receptor (P41143 whole entry): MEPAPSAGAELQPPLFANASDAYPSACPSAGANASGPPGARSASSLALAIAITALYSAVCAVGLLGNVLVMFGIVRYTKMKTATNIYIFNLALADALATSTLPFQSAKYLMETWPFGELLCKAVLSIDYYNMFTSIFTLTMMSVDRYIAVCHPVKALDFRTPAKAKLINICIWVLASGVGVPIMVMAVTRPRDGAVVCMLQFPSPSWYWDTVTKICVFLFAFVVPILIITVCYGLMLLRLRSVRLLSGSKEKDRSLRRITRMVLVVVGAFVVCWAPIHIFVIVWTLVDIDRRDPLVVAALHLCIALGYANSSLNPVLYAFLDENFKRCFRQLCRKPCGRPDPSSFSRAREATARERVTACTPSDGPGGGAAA
Sequence of Mu-type opioid receptor (P35372 whole entry): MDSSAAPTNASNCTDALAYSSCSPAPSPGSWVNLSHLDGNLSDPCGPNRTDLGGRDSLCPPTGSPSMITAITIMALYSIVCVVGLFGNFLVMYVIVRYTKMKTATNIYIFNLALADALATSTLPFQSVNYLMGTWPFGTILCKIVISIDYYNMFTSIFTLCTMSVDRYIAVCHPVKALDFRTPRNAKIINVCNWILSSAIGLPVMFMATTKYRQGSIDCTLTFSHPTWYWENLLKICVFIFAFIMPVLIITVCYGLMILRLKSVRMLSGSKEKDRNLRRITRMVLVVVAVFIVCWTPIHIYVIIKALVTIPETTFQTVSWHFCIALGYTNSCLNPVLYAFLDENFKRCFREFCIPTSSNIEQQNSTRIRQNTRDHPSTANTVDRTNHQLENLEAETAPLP

## Cc1c(C)c2c(OCC(=O)Nc3cccnc3)cc3c(c2oc1=O)CCC(C)(C)O3
[1]
  IC50: 12.1 µM (active)
[2]
  IC50: > 50 µM (inactive)

## S=C(Nc1ccc(Cl)cc1Cl)Nc1ccccc1Oc1ccccc1
[3]
  IC50: 4.08 µM (active)
Cryptococcus neoformans
  AC50: 44.9 µM (active)

## O=C(NC1CCCCC1)C(c1cccnc1)N(C(=O)CCl)c1cccc(Cl)c1 (configuration not stated)
BJ [4]
  EC50: 0.349 µM (active)
BJ [5]
  EC50: 5.05 µM (active)
BJ [6]
  EC50: 7.06 µM (inconclusive)
[7]
  EC50: 2.77 µM (active)
[8]
  IC50: 0.038 µM (active)
[9]
  CC50: 0.82 µM (active)
[10]
  AC50: 4.16 µM (active)
[11]
  AC50: 3.23 µM (active)
Protein RecA
  EC50: 0.467 µM (active)

## COc1ccc(CN(CCNC(=O)c2ccc(CNS(=O)(=O)c3ccc(C)cc3)cc2)C(C)C)cc1
Mu-type opioid receptor
  IC50: > 32 µM (inactive)
[12]
  IC50: > 32 µM (inactive)
[13]
  IC50: 2.29 µM (active)
[14]
  IC50: 0.532 µM (active)
